Laboratory results taken from US5395932A, “2,3-,4-,5-,6-,7-,8-,9- and/or 10-substituted dibenzoxazepine compounds, pharmaceutical compositions and methods of use” (G. D. Searle & Co., priority 1993, dated 1995).
Counter-ions that a name gives are not always drawn.

Key:
[1] = target: T1, prostaglandin E2-induced contractions of segments of guinea pig ileum (Cavia porcellus, UniProt A0A286XHJ6); assay: Prostaglandin (PGE) Antagonism Assay (guinea pig ileum); assay type: cell-based, male albino guinea pigs; conditions: estimated from 3 micromolar (dose ratio ≥2) or Schild plot (dose ratio ≥5); 37° C.; read-out: PGE ANTAGONISM IN GUINEA PIG ILEUM (pA2) (converted)
T1 construct: Segments of ileum about 2 cm long were then cut and mounted in a 10-mL tissue bath; from tissue; host or cells: guinea pig ileum segments
T1 sequence (A0A286XHJ6 1-405): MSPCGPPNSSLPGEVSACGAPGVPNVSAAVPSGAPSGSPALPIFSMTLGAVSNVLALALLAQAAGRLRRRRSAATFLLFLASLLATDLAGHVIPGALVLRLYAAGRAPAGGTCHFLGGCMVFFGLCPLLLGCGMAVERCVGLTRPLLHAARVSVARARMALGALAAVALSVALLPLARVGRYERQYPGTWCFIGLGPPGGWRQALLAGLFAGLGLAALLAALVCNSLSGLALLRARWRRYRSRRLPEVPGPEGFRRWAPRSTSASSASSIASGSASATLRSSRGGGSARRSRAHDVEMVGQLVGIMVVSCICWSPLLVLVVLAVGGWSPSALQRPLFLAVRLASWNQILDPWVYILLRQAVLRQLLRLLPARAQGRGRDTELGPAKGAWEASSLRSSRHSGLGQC
Description: The phrase "EC50 concentration" as used herein means that concentration of a compound or drug which is necessary to elicit a 50% maximal biological response and, thus, which is necessary to elicit a 50% reduction in the contractions of guinea pig ileum segments in a prostaglandin antagonism assay. (b) Prostaglandin (PGE) Antagonism Assay In order to determine the effectiveness of several of the compounds of the present invention ("test compounds") as prostaglandin E2 antagonists,a prostaglandin antagonism assay was conducted, as described below, to determine the ability of these compounds to inhibit prostaglandin E2 -induced contractions of segments of guinea pig ileum. […] Male albino guinea pigs weighing 200 to 500 grams were sacrificed by cervical dislocation. The ilea were then quickly removed from the guinea pigs and placed in a modified Tyrode solution, a solution which is known to those skilled in the art, containing one-half of the usual amount of magnesium ions. Segments of ileum about 2 cm long were then cut and mounted in a 10-mL tissue bath containing the modified Tyrode solution. The solution was maintained at 37° C. and aerated with a gaseous mixture of 95% oxygen and 5% carbon dioxide. Data for a control prostaglandin E2 dose response curve plotting concentration of prostaglandin E2 versus the intensity of contractions, detected isotonically, was then obtained by experimentally adjusting the dose of the prostaglandin E2 being injected into the tissue bath, in a manner known by those of skill in the art. Solutions or suspensions containing an initial concentration (3 micromolar) of a test compound in modified Tyrode solution ("test solutions/suspensions") were then separately substituted for the control bath solution. Each test solution/suspension was then kept in constant contact with the ileum tissue, except for brief periods to drain the bath in preparation for rinsing with fresh test solution/suspension. A second prostaglandin E2 dose response curve was then generated for prostaglandin E2 in the presence of a test compound. A dose ratio of EC50 doses was then calculated from the results of each test in a manner known by those of skill in the art. A test compound was determined to be "active" if the initial concentration used yielded at least a two-fold shift (dose ratio greater than or equal to 2) in the dose response curve for prostaglandin E2. […] The compounds of the present invention which were tested in this assay, and for which results are presented in Table 1, correspond to the particular examples specified in Table 1.

[2] = Writhing Assay (PBQ-induced writhing, analgesia); assay type: in vivo, Charles River male albino mice; conditions: Mus musculus, po; intragastric, 30 mg per kilogram, 25 minutes before PBQ i.p.; writhes ≤ one-half median of saline control; read-out: WRITHING ASSAY, number of mice out of 9 or 10 in which test compound produced analgesia (converted)
Protocol: The phrase "ED50 dose" as used herein means that dose of a compound or drug which produced a biological effect, such as producing analgesia, in 50% of the animals to which the compound or drug was administered. The Writhing Assay is one of the most widely-used experimental procedures for measuring the analgesic activity of different narcotic and nonnarcotic analgesic agents, and involves the continuous, chemically-induced pain of visceral origin to an animal, such as a mouse or rat. [Gyires et al., Arch. int. Pharmacodyn, 267, 131-140 (1984); […] al., Fed. Proc., 15, 494 (1956); Koster et al., Fed. Proc., 18, 412 (1959); and Witken et al., J. Pharmacol. exp. Ther., 133, 400-408 (1961).] Chemicals which may be used to induce this pain include phenylbenzoquinone (PBQ) and acetic acid. As a result of the chemical irritation to the animal, a characteristic stretching and writhing of the animal (dorsiflexion of the animal's back, extension of its hindlimbs and the strong contraction of its abdominal musculature) will generally occur. […] Drugs which reduce the number of writhes of the animal appear to restore the normal nociceptive threshold of the animal. […] Charles River male albino mice, weighing 20 to 30 grams were used in this assay. Twenty-five minutes after intragastric administration to nine or ten mice of 30 mg per kilogram of body weight of a compound of the present invention ("test compound"), […] per 10 g of body weight of a 0.025% w/v solution of PBQ was injected intraperitoneally into each mouse. Ten mice which were given saline in place of a test compound of the invention were used as a control group. Five minutes later, each mouse was individually placed into a glass beaker for observation, and the number of writhes occurring during the following ten-minute period was counted. A test compound was considered to have produced analgesia in a mouse if, in accordance with the conditions set forth above, and under the test criteria employed for this assay, after the administration of 30 mg per kilogram of body weight of a compound of the present invention to the mouse, the number of writhes elicited by a mouse injected with PBQ was equal to, or less than, one-half the median number of writhes recorded for the saline-treated control group of mice that day, as described by Taber in "Predictive Value of Analgesic Assays in Mice and Rats," Advances in Biochemical Psychopharmacology, 8, 191 (1974). The results for the particular compounds of the present invention analyzed in this assay, and discussed in the examples identified below which correspond thereto, are presented in Table 1 hereinbelow as fractions under the heading "WRITHING ASSAY." The fractions indicate the number of mice out of nine or ten in which a test compound produced analgesia. The standard initial screening dose of a test compound employed in this assay was 30 milligrams per […] of body weight. If this initial screening dose of the test compound produced analgesia in seven of nine or ten mice, then the effect of additional doses of the test compound on the writhing response was evaluated, and then the ED50 dose was generally calculated. (The slopes of the dose-response curves for all test compounds analyzed were compared as described by Tallarida and Murray, Manual of Pharmacologic Calculations, Page 11 (Springer Verlag, New York, 1981)). All ED50 doses calculated are also presented below as whole numbers in Table 1, under the heading "WRITHING ASSAY."

Compound	Kb [1]	responders at 30 mg/kg [2]
O=C(NCc1ccncc1)c1coc(CN2Cc3ccccc3Oc3ccc(Cl)cc32)n1 [Example 11, 2-[(8-chlorodibenz[b,f][1,4]oxazepin-10(11H)yl)methyl]-N-(4-pyridinylmethyl)-4-oxazolecarboxamide, monohydrochloride]	25.1 nM	90%
O=C(NCCc1ccncc1)c1coc(CN2Cc3ccccc3Oc3ccc(Cl)cc32)n1 [Example 14, 2-[(8-chlorodibenz[b,f][1,4]oxazepin-10(11H)yl)methyl]-N-[2-(4-pyridinyl)ethyl]-4-oxazolecarboxamide, hydrochloride, acetate]	15.8 nM	60%
CCOC(=O)c1coc(CN2Cc3ccccc3Oc3ccc(Cl)cc32)n1 [Example 7, Ethyl 2-[(8-chlorodibenz[b,f][1,4]oxazepin-10(11H)yl)methyl]-4-oxazole carboxylate]	794 nM	90%

The next lines start with results.

Kb [1]	Compound	responders at 30 mg/kg [2]
1000 nM	O=C(Nc1cccnc1)c1csc(N2Cc3ccccc3Oc3ccc(Cl)cc32)n1 [Example 29, 2-(8-Chlorodibenz[b,f][1,4]oxazepin-10(11H)-yl)-N-3-pyridinyl-4-thiazolecarboxamide, hydrochloride]	60%
1580 nM	CCOC(=O)c1csc(CN2Cc3ccccc3Oc3ccc(Cl)cc32)n1 [Example 19, ethyl 2-[(8-chlorodibenz[b,f][1,4]oxazepine-10(11H)yl)methyl]-4-thiazolecarboxylate]	10%
1580 nM	OC(CCc1ccncc1)c1csc(N2Cc3ccccc3Oc3ccc(Cl)cc32)n1 (stereo not drawn) [Example 34B, α-[2-(8-Chlorodibenz[b,f][1,4]oxazepin-10(11H)-yl)-4-thiazolyl]-4-pyridinepropanol, dihydrochloride]	50%
